pIC50: −log10 of the molar value.
Assays:
Aβtotal = test: Screening for γ-secretase-modulating activity in SKNBE2 cells carrying APP 695 wild type: Aβtotal in cell supernatant (Alphalisa); format: cell-based; settings: Homo sapiens, overnight incubation
Experimental: (§1) Pharmacology A) Screening of the Compounds of the Invention for γ-Secretase-Modulating Activity
(§2) Screening was carried out using SKNBE2 cells carrying the APP 695—wild type, grown in Dulbecco's Modified Eagle's Medium/Nutrient mixture F-12 (DMEM/NUT-mix F-12) (HAM) provided by Invitrogen (cat no. 10371-029) containing 5% Serum/Fe supplemented with 1% non-essential amino acids, 1-glutamine 2 mM, Hepes 15 mM, penicillin 50 U/ml (units/ml) en streptomycin 50 μg/ml. Cells were grown to near confluency.
(§3) The screening was performed using a modification of the assay as described in Citron et al (1997) Nature Medicine 3: 67. Briefly, cells were plated in a 384-well plate at 10^4 cells/well in Ultraculture (Lonza, BE12-725F) supplemented with 1% glutamine (Invitrogen, 25030-024), 1% non-essential amino acid (NEAA), penicillin 50 U/ml en streptomycin 50 μg/ml in the presence of test compound at different test concentrations. The cell/compound mixture was incubated overnight at 37° C., 5% CO2. The next day the media were assayed by two sandwich immuno-assays, for Aβ42 and Aβtotal.
(§4) Aβtotal and Aβ42 concentrations were quantified in the cell supernatant using the Aphalisa technology (Perkin Elmer). Alphalisa is a sandwich assay using biotinylated antibody attached to streptavidin coated donorbeads and antibody conjugated to acceptor beads. In the presence of antigen, the beads come into close proximity. The excitation of the donor beads provokes the release of singlet oxygen molecules that trigger a cascade of energy transfer in the acceptor beads, resulting in light emission. To quantify the amount of Aβ42 in the cell supernatant, monoclonal antibody specific to the C-terminus of Aβ42 (JRF/cAβ42/26) was coupled to the receptor beads and biotinylated antibody specific to the N-terminus of Aβ (JRF/AβN/25) was used to react with the donor beads. T quantify the amount of Aβtotal in the cell supernatant, monoclonal antibody specific to the N-terminus of Aβ (JRF/AβN/25) was coupled to the receptor beads and biotinylated antibody specific to the mid region of Aβ (biotinylated 4G8) was used to react with the donor beads.
(§5) To obtain the values reported in Table 3, the data are calculated as percentage of the maximum amount of amyloid Beta 42 measured in the absence of the test compound. The sigmoidal dose response curves were analyzed using non-linear regression analysis with percentage of the control plotted against the log concentration of the compound. A 4-parameter equation was used to determine the IC50.

Aβ42 = test: Screening for γ-secretase-modulating activity in SKNBE2 cells carrying APP 695 wild type: Aβ42 in cell supernatant (Alphalisa); format: cell-based; settings: Homo sapiens, SKNBE2, SKNBE2 cells carrying APP 695 wild type, overnight incubation
Experimental: as §1, §2, §3, §4, §5

With `COc1cc(Nc2nc3c(-c4cccc(C(F)(F)F)c4)cccn3n2)ccc1-n1cnc(C)c1` [Compound 20, N-[3-methoxy-4-(4-methyl-1H-imidazol-1-yl)phenyl]-8-[3-(trifluoromethyl)phenyl]-[1,2,4]triazolo[1,5-a]pyridin-2-amine] the pIC50 (Aβtotal) was 5.23, the pIC50 (Aβ42) was 8.30 and the melting point was 175 °C.
Work on `COc1cc(Nc2nc3c(-c4cccc(C(F)(F)F)c4)nccn3n2)ccc1-n1cnc(C)c1` [Compound 22, N-[3-methoxy-4-(4-methyl-1H-imidazol-1-yl)phenyl]-8-[3-(trifluoromethyl)phenyl]-[1,2,4]triazolo[1,5-a]pyrazin-2-amine] yielded a pIC50 (Aβtotal) of 5.12, a pIC50 (Aβ42) of 7.40 and a melting point of 199 °C.
In the case of `COc1cc(Nc2nc3c(-c4ccccc4C(F)(F)F)cccn3n2)ccc1-c1ocnc1C` [Compound 23, N-[3-methoxy-4-(4-methyl-5-oxazolyl)phenyl]-8-[2-(trifluoromethyl)phenyl]-[1,2,4]triazolo[1,5-a]pyridin-2-amine], the pIC50 (Aβtotal) was < 5.00, the pIC50 (Aβ42) was 7.89 and the melting point was 220.3 °C.
With `Cc1cc(-c2ccc(Nc3nc4c(-c5ccccc5Cl)cccn4n3)cc2F)ccn1` [Compound 25, 8-(2-chlorophenyl)-N-[3-fluoro-4-(2-methyl-4-pyridinyl)phenyl]-[1,2,4]triazolo[1,5-a]pyridin-2-amine] the pIC50 (Aβtotal) was < 5.00, the pIC50 (Aβ42) was 7.82 and the melting point was 251 °C.
For `Cc1cc(-c2ccc(Nc3nc4c(-c5ccccc5Cl)cccn4n3)cc2)cc(C)n1` [Compound 26, 8-(2-chlorophenyl)-N-[4-(2,6-dimethyl-4-pyridinyl)phenyl]-[1,2,4]triazolo[1,5-a]pyridin-2-amine], the pIC50 (Aβtotal) was < 5.00, the pIC50 (Aβ42) was 7.37 and the melting point was 228.1 °C.
With `COc1cc(Nc2nc3n(n2)CCCC3c2cccc(F)c2)ccc1-n1cnc(C)c1` (stereo not drawn) [Compound 30, 8-(3-fluorophenyl)-5,6,7,8-tetrahydro-N-[3-methoxy-4-(4-methyl-1H-imidazol-1-yl)phenyl]-[1,2,4]triazolo[1,5-a]pyridin-2-amine] the pIC50 (Aβtotal) was < 5.00, the pIC50 (Aβ42) was 7.31 and the melting point was 200.6 °C.
With `COc1cc(Nc2nc3n(n2)CCCC3c2ccc(F)cc2C)ccc1-n1cnc(C)c1` (stereo not drawn) [Compound 32, 8-(4-fluoro-2-methylphenyl)-5,6,7,8-tetrahydro-N-[3-methoxy-4-(4-methyl-1H-imidazol-1-yl)phenyl]-[1,2,4]triazolo[1,5-a]pyridin-2-amine] the pIC50 (Aβtotal) was 5.03, the pIC50 (Aβ42) was 7.92 and the melting point was 249 °C.
In the case of `COc1cc(Nc2nc3n(n2)CCCC3c2cccc(C(F)(F)F)c2)ccc1-n1cnc(C)c1` (stereo not drawn) [Compound 34, 5,6,7,8-tetrahydro-N-[3-methoxy-4-(4-methyl-1H-imidazol-1-yl)phenyl]-8-[3-(trifluoromethyl)phenyl]-[1,2,4]triazolo[1,5-a]pyridin-2-amine], the pIC50 (Aβtotal) was 5.12, the pIC50 (Aβ42) was 8.00 and the melting point was 224.9 °C.
In the case of `COc1cc(Nc2nc3n(n2)CCCC3c2ccccc2C(F)(F)F)ccc1-c1ocnc1C` (stereo not drawn) [Compound 38, 5,6,7,8-tetrahydro-N-[3-methoxy-4-(4-methyl-5-oxazolyl)phenyl]-8-[2-(trifluoromethyl)phenyl]-[1,2,4]triazolo[1,5-a]pyridin-2-amine], the pIC50 (Aβtotal) was < 5.00, the pIC50 (Aβ42) was 7.54 and the melting point was 258.5 °C.
For `COc1cc(Nc2nc3n(n2)CCCC3c2cccc(F)c2)ccc1-c1ccnc(C)c1` (stereo not drawn) [Compound 44, 8-(3-fluorophenyl)-5,6,7,8-tetrahydro-N-[3-methoxy-4-(2-methyl-4-pyridinyl)phenyl]-[1,2,4]triazolo[1,5-a]pyridin-2-amine], the pIC50 (Aβtotal) was < 5.00, the pIC50 (Aβ42) was 7.41 and the melting point was 170.1 °C.
For `COc1cc(Nc2nc3n(n2)CCOC3c2ccccc2C(F)(F)F)ccc1-n1cnc(C)c1` (stereo not drawn) [Compound 47, 5,6-dihydro-N-[3-methoxy-4-(4-methyl-1H-imidazol-1-yl)phenyl]-8-[2-(trifluoromethyl)phenyl]-8H-[1,2,4]triazolo[5,1-c][1,4]oxazin-2-amine], the pIC50 (Aβtotal) was < 5.00, the pIC50 (Aβ42) was 7.26 and the melting point was 202.9 °C.
Work on `COc1cc(Nc2nc3n(n2)CCCC3c2cc(C(F)(F)F)ccc2F)ccc1-n1cnc(C)c1` (stereo not drawn) [Compound 48, 8-[2-fluoro-5-(trifluoromethyl)phenyl]-5,6,7,8-tetrahydro-N-[3-methoxy-4-(4-methyl-1H-imidazol-1-yl)phenyl]-[1,2,4]triazolo[1,5-a]pyridin-2-amine] yielded a pIC50 (Aβtotal) of 5.24, a pIC50 (Aβ42) of 7.52 and a melting point of 204.4 °C.
For `COc1cc(Nc2nc3n(n2)CCCC3c2ccccc2F)ccc1-n1cnc(C)c1` (stereo not drawn) [Compound 49, 8-(2-fluorophenyl)-5,6,7,8-tetrahydro-N-[3-methoxy-4-(4-methyl-1H-imidazol-1-yl)phenyl]-[1,2,4]triazolo[1,5-a]pyridin-2-amine], the pIC50 (Aβtotal) was < 5.00, the pIC50 (Aβ42) was 7.54 and the melting point was 188.3 °C.
`COc1cc(Nc2nc3n(n2)CCCC3c2ccc(C(F)(F)F)cc2)ccc1-n1cnc(C)c1` (stereo not drawn) [Compound 50, 5,6,7,8-tetrahydro-N-[3-methoxy-4-(4-methyl-1H-imidazol-1-yl)phenyl]-8-[4-(trifluoromethyl)phenyl][1,2,4]triazolo[1,5-a]pyridin-2-amine] showed a pIC50 (Aβtotal) of 5.09, a pIC50 (Aβ42) of 7.72 and a melting point of 229.7 °C.
With `FC(F)(F)c1ccccc1C1CCCn2nc(Nc3ccc(-c4ccncc4)cc3)nc21` (stereo not drawn) [Compound 75, 5,6,7,8-tetrahydro-N-[4-(4-pyridinyl)phenyl]-8-[2-(trifluoromethyl)phenyl]-[1,2,4]triazolo[1,5-a]pyridin-2-amine] the pIC50 (Aβtotal) was < 5.00, the pIC50 (Aβ42) was 6.59 and the melting point was 240.4 °C.
In the case of `Cc1cc(-c2ccc(Nc3nc4n(n3)CCOC4c3ccccc3Cl)cc2)ccn1` (stereo not drawn) [Compound 76, 8-(2-chlorophenyl)-5,6-dihydro-N-[4-(2-methyl-4-pyridinyl)phenyl]-8H-[1,2,4]triazolo[5,1-c][1,4]oxazin-2-amine], the pIC50 (Aβtotal) was < 5.00, the pIC50 (Aβ42) was 7.34 and the melting point was 216.1 °C.
With `COc1cc(Nc2nc3n(n2)CCCC3c2ccccc2Cl)ccc1-c1ccnc(C)c1` (stereo not drawn) [Compound 77] the pIC50 (Aβtotal) was < 5.00, the pIC50 (Aβ42) was 7.40 and the melting point was 167.9 °C.
For `COc1cc(Nc2nc3n(n2)CCOC3c2ccc(F)cc2C)ccc1-c1ccnc(C)c1` (stereo not drawn) [Compound 92, 8-(4-fluoro-2-methylphenyl)-5,6-dihydro-N-[3-methoxy-4-(2-methyl-4-pyridinyl)phenyl]-8H-[1,2,4]triazolo[5,1-c][1,4]oxazin-2-amine], the pIC50 (Aβtotal) was < 5.00, the pIC50 (Aβ42) was 7.68 and the melting point was 201.9 °C.
With `COc1cc(Nc2nc3n(n2)CCCC3c2ccccc2F)ccc1-c1ccnc(C)c1` (stereo not drawn) [Compound 99, 8-(2-fluorophenyl)-5,6,7,8-tetrahydro-N-[3-methoxy-4-(2-methyl-4-pyridinyl)phenyl]-[1,2,4]triazolo[1,5-a]pyridin-2-amine] the pIC50 (Aβtotal) was < 5.00, the pIC50 (Aβ42) was 7.30 and the melting point was 214.9 °C.
With `COc1cc(Nc2nc3n(n2)CCOC3c2ccc(F)cc2F)ccc1-c1ccnc(C)c1` (stereo not drawn) [Compound 100, 8-(2,4-difluorophenyl)-5,6-dihydro-N-[3-methoxy-4-(2-methyl-4-pyridinyl)phenyl]-8H-[1,2,4]triazolo[5,1-c][1,4]oxazin-2-amine] the pIC50 (Aβtotal) was < 5.00, the pIC50 (Aβ42) was 7.44 and the melting point was 217.2 °C.
For `COc1cccc(C2CCCn3nc(Nc4ccc(-c5ccnc(C)c5)c(F)c4)nc32)c1` (stereo not drawn) [Compound 102, N-[3-fluoro-4-(2-methyl-4-pyridinyl)phenyl]-5,6,7,8-tetrahydro-8-(3-methoxyphenyl)-[1,2,4]triazolo[1,5-a]pyridin-2-amine], the pIC50 (Aβtotal) was < 5.00, the pIC50 (Aβ42) was 7.54 and the melting point was 148.4 °C.
In the case of `COc1cccc(C2CCCn3nc(Nc4ccc(-c5ccnc(C)c5)cc4)nc32)c1` (stereo not drawn) [Compound 103, 5,6,7,8-tetrahydro-8-(3-methoxyphenyl)-N-[4-(2-methyl-4-pyridinyl)phenyl]-[1,2,4]triazolo[1,5-a]pyridin-2-amine], the pIC50 (Aβtotal) was < 5.00, the pIC50 (Aβ42) was 7.23 and the melting point was 221.6 °C.
In the case of `COc1cc(C2CCCn3nc(Nc4ccc(-c5ccnc(C)c5)cc4)nc32)ccc1F` (stereo not drawn) [Compound 106, 8-(4-fluoro-3-methoxyphenyl)-5,6,7,8-tetrahydro-N-[4-(2-methyl-4-pyridinyl)phenyl]-[1,2,4]triazolo[1,5-a]pyridin-2-amine], the pIC50 (Aβtotal) was < 4.82, the pIC50 (Aβ42) was 7.40 and the melting point was 150.6 °C.

Reference: patent publication US9145399B2, “Substituted bicyclic triazole derivatives as gamma secretase modulators” (Janssen Pharmaceuticals, Inc., priority 2010, dated 2015)
